According to PMC3787104, “A Purine Analog Synergizes with Chloroquine (CQ) by Targeting Plasmodium falciparum Hsp90 (PfHsp90)” (PLoS ONE, 2013):

Legend:
[1] = molecular target: T1, P. falciparum Hsp90 (PfHsp90, PF07_0029) (Plasmodium falciparum, UniProt Q8IC05); test: SPR (Biacore X), positive control; also full-length ATPase inhibition, […]; type: binding; design: gene PF3D7_0708400; full length also tested in ATPase assay
Target sequence in this assay (Q8IC05 entry or part of it): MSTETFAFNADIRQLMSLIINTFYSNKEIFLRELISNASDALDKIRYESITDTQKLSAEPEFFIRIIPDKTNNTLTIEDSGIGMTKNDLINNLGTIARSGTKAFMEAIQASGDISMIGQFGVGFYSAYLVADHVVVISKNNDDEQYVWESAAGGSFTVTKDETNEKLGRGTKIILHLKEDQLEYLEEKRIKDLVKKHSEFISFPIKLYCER

[2] = molecular target: T1, P. falciparum Hsp90 (PfHsp90, PF07_0029); test: coupled LDH/NADH ATPase assay, positive control; type: biochemical; design: gene PF3D7_0708400; full-length PfHsp90
Target sequence in this assay (Q8IC05 1-745): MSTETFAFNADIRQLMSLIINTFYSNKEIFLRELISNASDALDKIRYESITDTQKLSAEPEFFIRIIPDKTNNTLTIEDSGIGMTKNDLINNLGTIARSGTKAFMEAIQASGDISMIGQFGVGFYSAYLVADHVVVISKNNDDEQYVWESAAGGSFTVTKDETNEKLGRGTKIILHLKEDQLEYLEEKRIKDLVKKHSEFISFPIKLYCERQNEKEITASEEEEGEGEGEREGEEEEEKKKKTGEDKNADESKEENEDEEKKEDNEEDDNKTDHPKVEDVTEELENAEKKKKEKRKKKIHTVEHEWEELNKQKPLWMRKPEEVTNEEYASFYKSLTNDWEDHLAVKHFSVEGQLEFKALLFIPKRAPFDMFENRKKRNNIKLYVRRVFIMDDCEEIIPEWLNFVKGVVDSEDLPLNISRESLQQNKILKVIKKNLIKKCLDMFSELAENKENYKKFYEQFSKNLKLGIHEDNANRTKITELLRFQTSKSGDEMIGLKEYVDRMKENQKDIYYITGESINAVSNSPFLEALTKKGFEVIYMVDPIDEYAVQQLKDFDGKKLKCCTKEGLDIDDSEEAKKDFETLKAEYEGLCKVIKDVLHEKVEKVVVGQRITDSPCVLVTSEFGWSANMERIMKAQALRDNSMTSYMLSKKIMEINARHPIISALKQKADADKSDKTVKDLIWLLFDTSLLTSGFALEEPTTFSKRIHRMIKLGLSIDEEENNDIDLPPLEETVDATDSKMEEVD

Structure (SMILES)	Kd [1]	IC50 [2]
C=CCNC1=C2C[C@@H](C)C[C@H](OC)[C@H](O)[C@@H](C)/C=C(\C)[C@H](OC(N)=O)[C@@H](OC)/C=C\C=C(/C)C(=O)NC(=CC1=O)C2=O [17-AAG]	105 ± 0.33 µM	–
C[C@@H]1C[C@H]2O[C@@H]2/C=C\C=C\C(=O)Cc2c(Cl)c(O)cc(O)c2C(=O)O1 [radicicol]	–	0.144 µM
